The source of these data is US11292821B2, “Peptides and combination of peptides for use in immunotherapy against lung cancer, including NSCLC, SCLC and other cancers” (Immatics Biotechnologies GmbH, priority 2017, dated 2022).

In one test the test system is CD8+ T cells. Nature of the test: In vitro T-cell priming assay with aAPCs (in vitro immunogenicity for MHC class I presented peptides). Conditions: in vitro immunogenicity, HLA A*24. The test is classed as cell-based, human.
Another test relates to HLA-A*24. Briefly: MHC binding assay (UV-ligand exchange, β2m ELISA). Set-up: species or system human.

As to “1 (QYDPTPLTW; listed as Homo sapiens) [compound 1]”, the “Wells positive [%]” value in the test with CD8+ T cells is reported as ““+” (<20% = +)”. The “Peptide exchange (peptide exchange yield, MHC class I binding score)” value (“Peptide exchange” below) in the test on HLA-A*24 was ““++++” (>75% = ++++)”.

On to “2 (VWSNVTPLKF; listed as Homo sapiens) [compound 2]”, for which, in the test on CD8+ T cells, the “Wells positive [%]” value is ““+” (<20% = +)”. The “Peptide exchange” value in the test on HLA-A*24 is listed as ““++++” (>75% = ++++)”.

Consider “4 (SYEKVINYL; listed as Homo sapiens) [compound 4]”, for which the “Wells positive [%]” value with CD8+ T cells is recorded as ““+” (<20% = +)”. The “Peptide exchange” value in the test with HLA-A*24 is on record as ““++++” (>75% = ++++)”.

As to “6 (KYKDYFPVI; listed as Homo sapiens) [compound 6]”, the “Wells positive [%]” value in the test on CD8+ T cells is reported as ““+” (<20% = +)”. In addition, the “Peptide exchange” value with HLA-A*24 was ““++++” (>75% = ++++)”.

Regarding “8 (PFLPPAACFF; listed as Homo sapiens) [compound 8]”, in the test with CD8+ T cells, the “Wells positive [%]” value is recorded as ““+” (<20% = +)”. In addition, the “Peptide exchange” value in the test on HLA-A*24 is ““++++” (>75% = ++++)”.

On to “10 (VWSDVTPLNF; listed as Homo sapiens) [compound 10]”, for which the “Wells positive [%]” value in the test on CD8+ T cells is recorded as ““+” (<20% = +)”. The “Peptide exchange” value with HLA-A*24 is on record as ““++++” (>75% = ++++)”.

With “11 (YYSKSVGFMQW; listed as Homo sapiens) [compound 11]”, in the test with CD8+ T cells, the “Wells positive [%]” value was ““++” (20%-49% = ++)”. Also, the “Peptide exchange” value in the test on HLA-A*24 is ““++++” (>75% = ++++)”.

As for “13 (HYTYILEVF; listed as Homo sapiens) [compound 13]”, the “Wells positive [%]” value in the test with CD8+ T cells is ““+++” (50%-69% = +++)”. The “Peptide exchange” value in the test with HLA-A*24 is on record as ““++++” (>75% = ++++)”.

On to “15 (KYALLLQDL; listed as Homo sapiens) [compound 15]”, for which, in the test with CD8+ T cells, the “Wells positive [%]” value is ““+++” (50%-69% = +++)”. Further, the “Peptide exchange” value with HLA-A*24 is ““++++” (>75% = ++++)”.

As to “16 (TYNPDFSSL; listed as Homo sapiens) [compound 16]”, the “Wells positive [%]” value in the test with CD8+ T cells is listed as ““+” (<20% = +)”. Further, in the test on HLA-A*24, the “Peptide exchange” value is listed as ““+++” (>50 = +++)”.

“59 (KYSTTFFMV; listed as Homo sapiens) [compound 59]”: the “Wells positive [%]” value in the test with CD8+ T cells is ““++” (20%-49% = ++)”. In addition, the “Peptide exchange” value in the test on HLA-A*24 is on record as ““++” (>20% = ++)”.

Regarding “60 (TYLSIFDQL; listed as Homo sapiens) [compound 60]”, the “Wells positive [%]” value in the test with CD8+ T cells is recorded as ““+” (<20% = +)”. The “Peptide exchange” value with HLA-A*24 is on record as ““+++” (>50 = +++)”.

For “61 (NYAENILTL; listed as Homo sapiens) [compound 61]”, the “Wells positive [%]” value with CD8+ T cells is ““++” (20%-49% = ++)”. For the same substance, the “Peptide exchange” value with HLA-A*24 is ““+++” (>50 = +++)”.

As to “62 (LYQEILAQL; listed as Homo sapiens) [compound 62]”, the “Wells positive [%]” value in the test with CD8+ T cells was ““+” (<20% = +)”. Moreover, the “Peptide exchange” value in the test on HLA-A*24 is ““++++” (>75% = ++++)”.

As to “65 (VYPASKMFPFI; listed as Homo sapiens) [compound 65]”, in the test with CD8+ T cells, the “Wells positive [%]” value is listed as ““+” (<20% = +)”. In the test on HLA-A*24, the “Peptide exchange” value is recorded as ““++++” (>75% = ++++)”.

For “66 (IYFRDSSFL; listed as Homo sapiens) [compound 66]”, the “Wells positive [%]” value in the test with CD8+ T cells is listed as ““++” (20%-49% = ++)”. In addition, in the test with HLA-A*24, the “Peptide exchange” value was ““++++” (>75% = ++++)”.

Regarding “72 (RYEGILYTI; listed as Homo sapiens) [compound 72]”, the “Wells positive [%]” value with CD8+ T cells is listed as ““+” (<20% = +)”. Besides, in the test with HLA-A*24, the “Peptide exchange” value is listed as ““++++” (>75% = ++++)”.

As for “76 (WYGWHFPEL; listed as Homo sapiens) [compound 76]”, the “Wells positive [%]” value with CD8+ T cells is ““+” (<20% = +)”. Also, the “Peptide exchange” value with HLA-A*24 is reported as ““+++” (>50 = +++)”.

On to “387 (RWLPQKNAAQF; listed as Homo sapiens) [compound 387]”, for which the “Peptide exchange” value in the test on HLA-A*24 is reported as ““+++” (>50 = +++)”.
